Where two headings read alike, the source gives them in different places.

The assay addresses T1, HDM2 (Homo sapiens, UniProt Q00987).
T1 construct: Thioredoxin (N); made in house; host or cells: E. coli strain BL21(DE3)Rosetta
The assay can be described thus: HDM2 FRET assay (inhibition of binding of FITC labeled p53-pocket peptide to HDM2). As to conditions: read-out: FRET IC50. The method, boiled down: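 Final: 0.5 nM His-HDM2, 3 nM FITC peptide, 0.25 nM Tb anti-His Ab; PBS, 0.01% BSA, 0.01% Tween-20; 0.1% DMSO.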

The mark [1] stands for this setting: 0.5 nM HDM2 (residues 17 to 125), 3nM peptide, two hour incubation at room temperature.

T1 sequence (Q00987 17-125): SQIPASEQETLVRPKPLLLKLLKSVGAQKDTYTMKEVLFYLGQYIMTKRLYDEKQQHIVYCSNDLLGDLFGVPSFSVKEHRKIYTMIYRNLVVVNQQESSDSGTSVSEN

For orientation: IC50 means the concentration at which inhibition is half-maximal. `C=C(c1ccccc1)c1nc2nc(-c3noc(=O)[nH]3)nc(N[C@H](C)C3CCC3)c2n1C[C@H]1CC[C@H](C)CC1` [Example 21.13, 3-[6-{[(1R)-1-cyclobutylethyl]amino}-7-[(trans-4-methylcyclohexyl)methyl]-8-(1-phenylethenyl)-7H-purin-2-yl]-1,2,4-oxadiazol-5(4H)-one]: the half-inhibitory concentration (IC50) (Table 21) is 1.9 nM.
On to `C[C@@H](Nc1nc(-c2noc(=O)[nH]2)nc2nc(C3(c4cscn4)CC3)n(C[C@H]3CC[C@H](C)CC3)c12)C1CCC1` [Example 22.54, 3-(6-{[(1R)-1-cyclobutylethyl]amino}-7-[(trans-4-methylcyclohexyl)methyl] -8-[1-(1,3-thiazol-4-yl)cyclopropyl]-7H-purin-2-yl)-1,2,4-oxadiazol-5(4H)-one], for which, under “Table 22”, the half-inhibitory concentration (IC50) stood at 2.26 nM.
For the molecule `COCCN(C)c1nc2nc(-c3noc(=O)[nH]3)nc(N[C@H](C)C3CCC3)c2n1C[C@H]1CC[C@H](C)CC1` [Example 11.116, 3-(6-{[(1R)-1-cyclobutylethyl]amino}-8-[(2-methoxyethyl)(methyl)amino]-7-[(trans-4-methylcyclohexyl)methyl]-7H-purin-2-yl)-1,2,4-oxadiazol-5(2H)-one], the IC50 (Table 11) stood at 21 nM.
Turning to `CC1CCN(c2nc3nc(-c4noc(=O)[nH]4)nc(N[C@H](C)C4CCC4)c3n2C[C@H]2CC[C@H](C)CC2)C(c2ccccc2)C1` (single isomer, unassigned) [Example 11.68], under “Table 11”, the concentration for half-maximal inhibition (IC50) was found to be 2.04 nM.
Take `C[C@@H](Nc1nc(-c2noc(=O)[nH]2)nc2nc(C(C)(O)C3CCOCC3)n(C[C@H]3CC[C@H](C)CC3)c12)C1CCC1` (stereo partly drawn) [Example 22.38, 3-(6-{[(1R)-1-cyclobutylethyl]amino}-8-[1-hydroxy-1-(tetrahydro-2H-pyran-4-yl)ethyl]-7-[(trans-4-methylcyclohexyl)methyl] -7H-purin-2-yl)-1,2,4-oxadiazol-5(4H)-one]: under “Table 22”, the IC50 turned out to be 4.76 nM.
For `C[C@H]1CC[C@H](Cn2c(C3(F)CCC3)nc3nc(-c4n[nH]c(=O)o4)nc(-c4cncc(Cl)c4)c32)CC1` [Example 23.38, 5-{6-(5-chloropyridin-3-yl)-8-(1-fluorocyclobutyl)-7-[(trans-4-methylcyclohexyl)methyl] -7H-purin-2-yl}-1,3,4-oxadiazol-2(3H)-one], for the setting “Table 23”, the concentration for half-maximal inhibition (IC50) was 31.1 nM.
With `C=C(c1ccc(F)cc1)c1nc2nc(-c3noc(=O)[nH]3)nc(N[C@H](C)C3CCC3)c2n1C[C@H]1CC[C@H](C)CC1` [Example 21.30, 3-(6-{[(1R)-1-cyclobutylethyl]amino}-8-[1-(4-fluorophenyl)ethenyl]-7-[(trans-4-methylcyclohexyl)methyl]-7H-purin-2-yl)-1,2,4-oxadiazol-5(4H)-one], where the note is “Table 21”, the IC50 came out at 1.84 nM.
In the case of `CC[S+]([O-])c1nc(N[C@H](C)C2CCC2)c2c(n1)nc(N1CCOC[C@H]1c1ccccc1)n2C[C@H]1CC[C@H](C)CC1` (stereo partly drawn) [Example 14.7, N-[(1R)-1-cyclobutylethyl]-2-(ethylsulfinyl)-7-[(trans-4-methylcyclohexyl)methyl]-8-[(3R)-3-phenylmorpholin-4-yl]-7H-purin-6-amine], the IC50 under setting [1] is 12.2 nM.
As for `CCCC(CCC)Nc1nc(C(=O)O)nc2nc(-c3cccc(C)c3)n(Cc3ccc(C(F)(F)F)cc3)c12` [Example 6.64, 8-(3-methylphenyl)-6-[(1-propylbutyl)amino]-7-[4-(trifluoromethyl)benzyl]-7H-purine-2-carboxylic acid], the IC50 (Table 6) was determined as 920 nM.
As to `C[C@@H](Nc1nc(C(=O)O)nc2nc(N3CCCC3c3ccccc3)n(Cc3ccc(C(F)(F)F)cc3)c12)C1CCC1` (single isomer, unassigned) [Example 9.64], where the note is “Table 9”, the IC50 came out at 10.2 nM.
Regarding `COC(=O)[C@@H]1COCCN1c1nc2nc(-c3noc(=O)[nH]3)nc(-c3cccc(Cl)c3)c2n1C[C@H]1CC[C@H](C)CC1` [Example 16.48, methyl (3S)-4-[6-(3-chlorophenyl)-7-[(trans-4-methylcyclohexyl)methyl]-2-(5-oxo-4,5-dihydro-1,2,4-oxadiazol-3-yl)-7H-purin-8-yl]morpholine-3-carboxylate], under setting [1], the IC50 came out at 88.3 nM.
Still for that read-out and setting: for `C[C@H]1CC[C@H](Cn2c(N3CCOC[C@H]3c3ccccc3)nc3nc(-c4noc(=O)[nH]4)nc(-c4ccccc4)c32)CC1` [Example 16.12, 3-(7-(((trans)-4-methylcyclohexyl)methyl)-6-phenyl-8-((R)-3-phenylmorpholino)-7H-purin-2-yl)-1,2,4-oxadiazol-5(4H)-one] the value was 10.1 nM.
Turning to `Cc1cccc(-c2nc3nc(C(=O)O)nc(N[C@H](CC(O)CO)C4CCC4)c3n2Cc2ccc(C(F)(F)F)cc2)c1` (stereo partly drawn) [Example 7.15, 6-{[(1R)-1-cyclobutyl-3,4-dihydroxybutyl]amino}-8-(3-methylphenyl)-7-[4-(trifluoromethyl)benzyl]-7H-purine-2-carboxylic acid], the IC50 (Table 7) was 26.5 nM.
In the case of `C[C@H]1CC[C@H](Cn2c(C(O)C3CCOCC3)nc3nc(-c4noc(=O)[nH]4)nc(-c4cncc(Cl)c4)c32)CC1` (mixture of isomers) [Example 23.17, 3-{6-(5-chloropyridin-3-yl)-8-[hydroxy(tetrahydro-2H-pyran-4-yl)methyl]-7-[(trans-4-methylcyclohexyl)methyl] -7H-purin-2-yl}-1,2,4-oxadiazol-5(4H)-one], where the note is “Table 23”, the IC50 was determined as 67.3 nM.
On to `Cc1cccc(-c2nc3nc(C(N)=O)nc(N[C@H](C)C4CCC4)c3n2Cc2ccc(C(F)(F)F)cc2)c1` [Example 12.29, 6-{[(1R)-1-cyclobutylethyl]amino} -8-(3-methylphenyl)-7-[4-(trifluoromethyl)benzyl]-7H-purine-2-carboxamide], for which the IC50 under setting [1] came out at 1410 nM.
Turning to `C[C@@H](Nc1nc(C(N)=O)nc2nc(N3CCN(S(C)(=O)=O)C[C@H]3c3ccccc3)n(C[C@H]3CC[C@H](C)CC3)c12)C1CCC1` [Example 17.12, 6-{[(1R)-1-cyclobutylethyl]amino}-7-[(trans-4-methylcyclohexyl)methyl]-8-[(2R)-4-(methylsulfonyl)-2-phenylpiperazin-1-yl]-7H-purine-2-carboxamide], the IC50 (Table 17.2) is 4.6 nM.
Turning to `Cc1cccc(-c2nc(-c3noc(=O)[nH]3)nc3nc(N4CCOCC4)n(C[C@H]4CC[C@H](C)CC4)c23)c1` [Example 16.27, 3-{7-[(trans-4-methylcyclohexyl)methyl]-6-(3-methylphenyl)-8-morpholin-4-yl-7H-purin-2-yl}-1,2,4-oxadiazol-5(4H)-one], the concentration for half-maximal inhibition (IC50) under setting [1] was 334 nM.
For `C[C@@H](Nc1nc(-c2noc(=O)[nH]2)nc2nc(N3CCCC3C(C)(C)C)n(C[C@H]3CC[C@H](C)CC3)c12)C1CCC1` (stereo partly drawn) [Example 11.36, 3-{8-(2-tert-butylpyrrolidin-1-yl)-6-{[(1R)-1-cyclobutylethyl]amino}-7-[(trans-4-methylcyclohexyl)methyl]-7H-purin-2-yl}-1,2,4-oxadiazol-5(2H)-one], the IC50 (Table 11) was 3.93 nM.
Consider `C[C@@H](Nc1nc(C(=O)O)nc2nc(CC(C)(C)C)n(C[C@H]3CC[C@H](C)CC3)c12)C1CCC1` [Example 20.6, 6-{[(1R)-1-cyclobutylethyl]amino}-8-(2,2-dimethylpropyl)-7-[(trans-4-methylcyclohexyl)methyl]-7H-purine-2-carboxylic acid], for which the IC50 (Table 20) stood at 13.9 nM.
Consider `CC[C@H](Nc1nc2nc(-c3noc(=O)[nH]3)nc(-c3cccc(Cl)c3)c2n1C[C@H]1CC[C@H](C)CC1)c1cccc(F)c1` [Example 16.64, 3-{6-(3-chlorophenyl)-8-{[(1S)-1-(3-fluorophenyl)propyl]amino}-7-[(trans-4-methylcyclohexyl)methyl]-7H-purin-2-yl}-1,2,4-oxadiazol-5(4H)-one], for which the IC50 under setting [1] was 3.16 nM.
For the molecule `COCC1COCCN1c1nc2nc(-c3noc(=O)[nH]3)nc(N[C@H](C)C3CCC3)c2n1C[C@H]1CC[C@H](C)CC1` (single isomer, unassigned) [Example 11.151], the IC50 (Table 11) was 20.9 nM.
For the molecule `C[C@@H](Nc1nc(C(=O)O)nc2nc(N3CCCCC3c3ccccn3)n(Cc3ccc(C(F)(F)F)cc3)c12)C1CCC1` (stereo partly drawn) [Example 9.53, 6-{[(1R)-1-cyclobutylethyl]amino}-8-(2-pyridin-2-ylpiperidin-1-yl)-7-[4-(trifluoromethyl)benzyl]-7H-purine-2-carboxylic acid], the IC50 (Table 9) was determined as 26.4 nM.
As for `CC1=CCC(Cn2c(-c3cc(C(C)C)ccn3)nc3nc(C(=O)O)nc(N[C@H](C)C4CCC4)c32)CC1` (stereo partly drawn) [Example 18.5, 6-(((R)-1-cyclobutylethyl)amino)-8-(4-isopropylpyridin-2-yl)-7-((4-methylcyclohex-3-en-1-yl)methyl)-7H-purine-2-carboxylic acid], the IC50 (Table 18) was determined as 6.48 nM.
For `C[C@H]1CC[C@H](Cn2c(N3CCOC[C@H]3c3ccccc3F)nc3nc(-c4n[nH]c(=O)o4)nc(-c4cncc(Cl)c4)c32)CC1` [Example 16.95, 5-{6-(5-chloropyridin-3-yl)-8-[(3R)-3-(2-fluorophenyl)morpholin-4-yl]-7-[(trans-4-methylcyclohexyl)methyl]-7H-purin-2-yl}-1,3,4-oxadiazol-2(3H)-one], the concentration for half-maximal inhibition (IC50) under setting [1] worked out at 0.494 nM.
On to `CCOCC1CCCN1c1nc2nc(-c3noc(=O)[nH]3)nc(N[C@H](C)C3CCC3)c2n1C[C@H]1CC[C@H](C)CC1` (stereo partly drawn) [Example 11.32, 3-(6-{[(1R)-1-cyclobutylethyl]amino}-8-[2-(ethoxymethyl)pyrrolidin-1-yl]-7-[(trans-4-methylcyclohexyl)methyl]-7H-purin-2-yl)-1,2,4-oxadiazol-5(2H)-one], for which the IC50 (Table 11) worked out at 8 nM.
As for `CCN(CC)c1nc(C(=O)O)nc2nc(-c3cccc(C)c3)n(Cc3ccc(C(F)(F)F)cc3)c12` [Example 6.51, 6-(diethylamino)-8-(3-methylphenyl)-7-[4-(trifluoromethyl)benzyl]-7H-purine-2-carboxylic acid], the IC50 (Table 6) is 4600 nM.

The record behind these values is patent publication EP2951180B1, “2,6,7,8 SUBSTITUTED PURINES AS HDM2 INHIBITORS” (Merck Sharp & Dohme Corp., priority 2013, dated 2014).
